Measurements from article PMC5943252, “Contrasting roles for actin in the cellular uptake of cell penetrating peptide conjugates” (Scientific Reports, 2018).
Entries after “also recorded” stand apart in the source; their conditions may differ.

How the values were obtained:
A431 cells [1] = assay: Flow cytometry of cellular uptake of EGFP-R8 in the presence of actin inhibitors; type: cell-based; conditions: for Normalised Fluoresence Intensity (EGFP-R8): three independent experiments
Description: (§1) A431 cells were seeded onto 12-well plates and cultured for 24 hr to be ~80% confluent on the day of experiment. Cells were washed twice with PBS and then incubated with diluent control (DMSO/dH2O) or actin inhibitors as previously described. They were then loaded with serum-free DMEM containing either 2 µM EGFP-R8, 5 µg/ml TF-647 or 0.1 mg/ml Dex-647 in the presence or absence of actin inhibitors for times stipulated in the figure legends. The plates were then placed on ice to prevent further uptake and washed 3x with either ice-cold PBS or 0.5 mg/ml heparin in PBS. To remove the plasma membrane bound TF, cells were washed 3x with ice-cold PBS followed by an incubation for 1 min in ice-cold acid wash (0.2 M acetic acid, 0.2 M NaCl, pH 2.0)[33]. All cells were then washed twice with PBS at room temperature before trypsinisation at 37 °C for 5 min before placing the detached cells in centrifuge tubes and centrifuging at 4 °C for 3 min at 800 × g. The obtained cell suspension was washed 3x with ice-cold PBS and finally resuspended in 300 µl ice-cold PBS for measurement of cell-associated fluorescence (cell gate 50,000 cells) by flow cytometry on a BD FACSVerse utilising a 488 laser and 527/32 filter for EGFP analysis and a 633 nm laser and 660/10 filter for Alexa 647. Cells were gated using FSC-A/SSC-A to isolate single cell populations and analysed using FlowJo.
Flow cytometry measurements represent the mean fluorescence from three independent experiments performed in duplicate, where each individual data point was the geometric mean. A two-tailed unpaired Students t-test was used to test for differences within experiments. Significant differences were classed as having a P value of < 0.05.

[2] = tested on: actin architecture in A431 cells; assay: Actin cytoskeleton visualisation (Rh-P staining, confocal microscopy); type: cell-based; conditions: for effect on organisation of the actin cytoskeleton: A431 cells, 4 hr, Rh-P staining
Description: Analysis was performed on a Leica SP5 confocal laser scanning microscope, equipped with laser lines: 405 Blue Diode (Excitation wavelength 405 nm for Hoechst 33342) Argon (Excitation wavelength 488 nm for Alexa 488 or EGFP), Helium Neon Laser 1 (Excitation wavelength 543 nm for Tetramethyl-Rhodamine Phalloidin (Rh-P)) and Laser 2 (Excitation wavelength 633 nm for Alexa 647 conjugates). All images presented in this study were obtained using a HCX PL APO 63x 1.4 NA oil immersion objective with Leica Type F immersion oil. Parameters “Gain” and “Off-set” of the individual photomultiplier tubes were adjusted between experiments in order to obtain optimal image acquisition avoiding saturation. For multi-channel image acquisition, the channels were scanned in a sequential recording mode to avoid spectral cross-talk caused by overlapping excitation and/or emission spectra of fluorophores. Acquisition mode “XYZ” and image resolutions (pixels/image) of 512 × 512 or 1024 × 1024 were selected and pinhole size was set to 1 Airy Unit. Depending on acquisition requirements the scan speed was set as either 400 or 700 Hz and for single section images, the same optical section was scanned 3x to generate a line average image. Captured images were then analysed using ImageJ. In some cases (live cell imaging) the same cells were also imaged using […] microscopy (DIC).
A recently described method was utilised giving information on actin architecture at different regions of the cells termed basal and cell body and apex (CBA). For actin staining, HeLa (0.5 × 10^6 cells/well) or A431 (1.0 × 10^6 cells/well) cells in 2.5 mL D-MEM containing 10% FBS were seeded on round borosilicate No.1.5 cover slips in 6 –well plates and allowed to adhere for 24 hr at 37 °C/5% CO2, to reach a confluence of ~80%. The cells were then treated with actin disrupters as described above, washed 3x with PBS and fixed for 15 min at room temperature with 3% PFA in PBS. Cells were then washed 3x with PBS and permeabilised with 0.2% Triton X-100 in PBS at room temperature for 5 min, washed 3x with PBS and stained for cell nuclei with 1.0 µg/ml Hoechst 33342 in PBS and for polymerised actin with 1.0 µg/ml Rh-P in PBS for 15 min at room temperature. The cells were finally washed 3x with PBS and once with distilled water, coverslips were mounted in DAKO mounting medium on glass microscope slides and imaged by confocal microscopy.

macrophages = conditions: cited from earlier work
Text: Through interaction with the Rho GTPase, ROCKs play a central role in actin network assembly and membrane association. In A431 cells the effects of Y27632 on the actin cytoskeleton was more subtle than that observed with the agents that directly targeted actin. […] In contrast to results o ...

HeLa cells = assay: Live cell confocal microscopy of uptake of endocytic probes and R8 conjugates, with or without Cyt D; type: cell-based; conditions: 10 µM Cyt D, 15 min preincubation
Description: HeLa or A431 cells were seeded on 35 mm MatTek dishes (Ashland, US) at respective densities of 5 × 10^5 cells/dish and 1.0 × 10^6 cells/dish and maintained in 2.5 mL D-MEM containing 10%, 100 IU/mL penicillin and 100 µg/mL streptomycin. Cells were then allowed to adhere for 24 hr at 37 °C/5% CO2 to reach a confluence of ~80%. On the day of experimentation, they were washed with PBS and then incubated with 100 µl serum-free D-MEM (thus reducing well described serum binding effects[32]) containing either 2 µM CPP conjugate (R8-Alexa488 or EGFP-R8), 5 µg/ml transferrin-Alexa 647 (TF-647) or 0.1 mg/ml dextran (10 kDa)-Alexa 647 (Dex-647). The cells were then incubated for 1 hr (or 30 min for TF-647) at 37 °C/5% CO2 before washing 3x with PBS (TF-647 or Dex-647) or PBS 0.5 mg/mL heparin (R8-conjugates). […]
Cells were seeded on MatTek dishes as previously described and were washed with PBS before preincubation at 37 °C with diluent control (DMSO) or actin inhibitors: 10 µM Cyt D for 15 min; 0.1–1 µM Lat B for 30 min; 0.2–4 µM JAS for 45 min; 50–100 µM Y27632 for 4 hr in serum-free D-MEM at 37 °C/5% CO2. […] EGFP-R8 (2 µM) was then added for 1 hr in the absence or presence of 10 µM Cyt D. EGFP-R8 and Dex-647 subcellular distribution was then analysed in live cells using confocal microscopy. […]

A431 cells [3] = assay: Live cell confocal microscopy of uptake of endocytic probes and R8 conjugates, with or without actin inhibitors; type: cell-based; conditions: 10 µM Cyt D, 15 min preincubation
Description: HeLa or A431 cells were seeded on 35 mm MatTek dishes (Ashland, US) at respective densities of 5 × 10^5 cells/dish and 1.0 × 10^6 cells/dish and maintained in 2.5 mL D-MEM containing 10%, 100 IU/mL penicillin and 100 µg/mL streptomycin. Cells were then allowed to adhere for 24 hr at 37 °C/5% CO2 to reach a confluence of ~80%. On the day of experimentation, they were washed with PBS and then incubated with 100 µl serum-free D-MEM (thus reducing well described serum binding effects[32]) containing either 2 µM CPP conjugate (R8-Alexa488 or EGFP-R8), 5 µg/ml transferrin-Alexa 647 (TF-647) or 0.1 mg/ml dextran (10 kDa)-Alexa 647 (Dex-647). The cells were then incubated for 1 hr (or 30 min for TF-647) at 37 °C/5% CO2 before washing 3x with PBS (TF-647 or Dex-647) or PBS 0.5 mg/mL heparin (R8-conjugates). They were then washed once with PBS, prior to the addition of 2 mL of imaging medium (phenol red free RPMI, 20 mM HEPES pH 7.4) and analysis by live cell confocal microscopy.
Cells were seeded on MatTek dishes as previously described and were washed with PBS before preincubation at 37 °C with diluent control (DMSO) or actin inhibitors: 10 µM Cyt D for 15 min; 0.1–1 µM Lat B for 30 min; 0.2–4 µM JAS for 45 min; 50–100 µM Y27632 for 4 hr in serum-free D-MEM at 37 °C/5% CO2. Endocytic probes (TF-647, Dex-647) or R8-conjugates were then incubated with the cells in the absence (control) or presence of the inhibitors and further incubated at 37 °C/5% CO2 for times specified in figure legends prior to analysis by confocal microscopy. For pulse chase experiments, A431 cells were incubated with 0.1 mg/ml Dex-647 for 2 hr (pulse) followed by washing and a further 4 hr (chase) in fresh complete growth medium. EGFP-R8 (2 µM) was then added for 1 hr in the absence or presence of 10 µM Cyt D. EGFP-R8 and Dex-647 subcellular distribution was then analysed in live cells using confocal microscopy. For low temperature experiments, cells were preincubated with Cyt D as above and then placed on ice for 2 min prior to addition of ice cold EGFP-R8. The cells were then maintained under these conditions for 1 hr prior to analysis by confocal microscopy.
Analysis was performed on a Leica SP5 confocal laser scanning microscope, equipped with laser lines: 405 Blue Diode (Excitation wavelength 405 nm for Hoechst 33342) Argon (Excitation wavelength 488 nm for Alexa 488 or EGFP), Helium Neon Laser 1 (Excitation wavelength 543 nm for Tetramethyl-Rhodamine Phalloidin (Rh-P)) and Laser 2 (Excitation wavelength 633 nm for Alexa 647 conjugates). All images presented in this study were obtained using a HCX PL APO 63x 1.4 NA oil immersion objective with Leica Type F immersion oil. Parameters “Gain” and “Off-set” of the individual photomultiplier tubes were adjusted between experiments in order to obtain optimal image acquisition avoiding saturation. For multi-channel image acquisition, the channels were scanned in a sequential recording mode to avoid spectral cross-talk caused by overlapping excitation and/or emission spectra of fluorophores. Acquisition mode “XYZ” and image resolutions (pixels/image) of 512 × 512 or 1024 × 1024 were selected and pinhole size was set to 1 Airy Unit. Depending on acquisition requirements the scan speed was set as either 400 or 700 Hz and for single section images, the same optical section was scanned 3x to generate a line average image. Captured images were then analysed using ImageJ. […]

A431 cells [4] = assay: Flow cytometry of transferrin-Alexa647 uptake with acid wash; type: cell-based; conditions: 10 µM Cyt D, 15 min preincubation, then 5 µg/ml TF-647 for 30 min with Cyt D, acid washing of surface label, three separate experiments
Description: as §1, with “All cells were then washed twice with PBS at room temperature before trypsinisation at 37 °C for 5 min before placing the detached cells in centrifuge tubes and centrifuging at 4 °C for 3 min at 800 × g.” left out
Flow cytometry measurements represent the mean fluorescence from three independent experiments performed in duplicate, where each individual data point was the geometric mean. […]

A431 = conditions: cited from earlier work
Text: (§2) Cyt D binds to the fast-growing ends of actin nuclei and filaments, preventing addition of monomeric actin to these sites. […] Here we further explored these contradictory effects by also performing uptake studies with recomb ...

HeLa = conditions: cited from earlier work
Text: as §2

| Compound | inhibition of cell uptake of EGFP-R8 (A431 cells [1]; 100 µM Y27632, 4 hr preincubation, then 2 µM EGFP-R8 for 1 hr with Y27632, P = 0.02) | Normalised Fluoresence Intensity (EGFP-R8) (A431 cells [1]; 100 µM Y27632, 4 hr preincubation, then 2 µM EGFP-R8 for 1 hr with Y27632, mean of geometric means) | effect on organisation of the actin cytoskeleton ([2]; Y27632 1 and 10 μM (up to 10 μM)) | effect on organisation of the actin cytoskeleton ([2]; Y27632 at higher concentrations (50, 100 μM)) | inhibition of uptake of 70 KDa dextran (macrophages) | Normalised Fluoresence Intensity (EGFP-R8) (A431 cells [1]; 10 µM Cyt D, 15 min preincubation, then 2 µM EGFP-R8 for 1 hr with Cyt D, geometric means, normalised to diluent control) | fold increase in intracellular fluorescence (EGFP-R8 uptake) (A431 cells [1]; 10 µM Cyt D, 15 min preincubation, then 2 µM EGFP-R8 for 1 hr with Cyt D, serum-free D-MEM, 37 °C, washed, trypsinised, vs diluent control, P = 0.0036, three independent experiments) | effect on internalisation of R8-Alexa 488 (HeLa cells; then 2 µM R8-Alexa 488 for 1 hr with Cyt D, heparin wash) | effect on cell associated transferrin fluorescence (HeLa cells; then 5 µg/ml TF-647 for 30 min with Cyt D, vs control) | effect on internalisation of EGFP-R8 (A431 cells [3]; then 2 µM EGFP-R8 for 1 hr with Cyt D, heparin wash) | effect on uptake of R8-Alexa488 (A431 cells [3]; then 2 µM R8-Alexa488 for 1 hr with Cyt D, heparin wash) | effect on uptake of dextran-Alexa647 (A431 cells [3]; then 0.1 mg/ml 10 kDa Dex-647 for 1 hr with Cyt D) | effect on fluorescence uptake of transferrin (A431 cells [4]) | effect on actin organisation ([2]; Cyt D at concentrations >5 µM) | effect on uptake of Alexa488-CPPs R8 and Tat (A431; A431, flow cytometry) | effect on uptake of dextran (A431; A431 cells) | effect on uptake of dextran (HeLa; HeLa cells) | effect on uptake of Alexa488-CPPs R8 and Tat (HeLa; HeLa, flow cytometry) |
| --- | --- | --- | --- | --- | --- | --- | --- | --- | --- | --- | --- | --- | --- | --- | --- | --- | --- | --- |
| C[C@@H](N)[C@H]1CC[C@H](C(=O)Nc2ccncc2)CC1.Cl.Cl (relative stereo) [Y27632, (+)-(R)-trans-4-(1-aminoethyl)-N-(4-pyridyl) cyclohexanecarboxamide dihydrochloride] | ~ 20% | 0.77 | no visible changes in the organisation of the actin cytoskeleton | extensive actin deformities | ~ 50% |  |  |  |  |  |  |  |  |  |  |  |  |  |
| C=C1[C@@H](C)[C@H]2[C@H](Cc3ccccc3)NC(=O)[C@]23[C@H](OC(C)=O)/C=C/[C@@](C)(O)C(=O)[C@@H](C)C/C=C/[C@H]3[C@@H]1O [Cyt D, cytochalasin D] |  |  |  |  |  | 4.55 | 4.5 fold | inhibited; also recorded: reduction in uptake | not markedly different | dramatically enhanced | less of a noticeable reduction in uptake; also recorded: inhibition | dramatically increased | no difference in fluorescence uptake | completely destroys actin organisation | inhibited | increased uptake | no effect | inhibited |
